The results in this text go back to PubChem BioAssay (NCI).

The structures appear in SMILES notation. Values joined by “and” are separate entries in the source; they are usually repeats but may differ in a detail not shown here. Equal entries are not always repeated.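 Compound exposure: 48 hours, 5 concentrations, 96-well plates. Abbreviation: GI50, concentration required for 50% inhibition of growth. The concentration for full growth arrest is given as TGI.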

Common to all, as to assay: NCI anticancer screen, dose series, 48 h
For assay [1], the system named is MDA-MB-231 breast.
Assay [2] relates to HCC-2998 colon.
The test system of assay [3] is MCF7 breast.
In assay [4] the test system is SF-539 CNS.
Assay [5] concerns OVCAR-5 ovarian.
In assay [6] the test system is UO-31 renal.
The subject of assay [7] is CAKI-1 renal.
In assay [8] the test system is DU-145 prostate.
Assay [9] has as its system MOLT-4 leukemia.
In assay [10] the test system is OVCAR-3 ovarian.

In the case of `O=c1c(-c2ccc(O)cc2)coc2cc(OC3OC(CO)C(O)C(O)C3O)cc(O)c12` (configuration not stated), the TGI in assay [1], in [2], in assay [3], in assay [4], in assay [5] and in assay [6] was greater than 100 µM throughout. In addition, the TGI in [7], in assay [8], in assay [9] and in [10] was greater than 100 µM in each case. Besides, the GI50 in [3] was greater than 100 µM; in [5] it was greater than 100 µM; in assay [7] it was greater than 10 µM; in [9] it was greater than 10 µM.

As for `O=C1C(=O)N(c2cccc(C(F)(F)F)c2)C(=O)C(=O)C1c1nc2ccccc2s1`, the TGI in assay [1], in assay [2], in assay [3], in assay [4], in [5] and in [6] was greater than 100 µM throughout. The TGI in assay [7], in assay [8], in assay [9] and in assay [10] was greater than 100 µM in each case.

On to `NC(=Nc1nc(-c2ccccn2)cc2ccccc12)c1ccccn1`, for which the GI50 in [1] was 0.941 µM; in assay [3], 0.148 µM; in assay [4], 0.189 µM; in [5], 0.176 µM; in assay [6], 0.239 µM; in [7], 0.0422 µM. The GI50 in assay [8] is 0.135 µM; in assay [9], 0.00109 µM; in assay [10], 0.00188 µM. In addition, the TGI in assay [1] was greater than 100 µM; in [2], greater than 100 µM; in assay [3] it was greater than 100 µM; in assay [4], 0.743 µM and 2.08 µM; in [5] it was greater than 100 µM; in assay [6], 0.921 µM and 1.96 µM. The TGI in assay [7] was greater than 11.9 µM; in assay [9], 0.0283 µM; in assay [10], greater than 100 µM.

`O=S(=O)(Nc1ccc2ccccc2c1)c1ccc(-c2cnc(C3CC3)o2)cc1`: the GI50 in assay [1] was 2.81 µM; in [2], 1.48 µM; in assay [3], 0.478 µM; in [4], 1.17 µM; in [5], 3.01 µM; in [6], 1.68 µM. Moreover, the GI50 was 0.539 µM in assay [7], 2.96 µM in [8], 0.873 µM in assay [9] and 0.435 µM in [10]. For the same compound, the TGI in assay [1] turned out to be 14.2 µM; in assay [2], 6.06 µM; in assay [3], 25 µM; in assay [4], 3.92 µM; in assay [5] it was 23.4 µM; in assay [6] it was 18.8 µM. Moreover, the TGI in assay [7] was 38 µM; in [8], 20.4 µM; in [9], greater than 100 µM; in assay [10] it was 5.37 µM.

Take `CC(C)CCC(=O)[C@@H](C)[C@H]1[C@@H](OC2OCC(O)C(O)C2NS(C)(=O)=O)C[C@H]2[C@@H]3CC=C4C[C@@H](O)CC[C@]4(C)[C@H]3CC[C@]12C` (some centres not stated): the GI50 in [1] was 2 µM; in assay [2], 5.04 µM; in [3], 1.26 µM; in assay [4], 0.202 µM; in assay [5], 4.89 µM; in assay [6] it was 0.782 µM. In addition, the GI50 in assay [7] is 1.16 µM; in assay [8], 3.42 µM; in [9] it was 0.827 µM; in [10], 2.72 µM. In addition, the TGI in [1] stood at 8.65 µM; in assay [2] it was 11.7 µM; in [3], 5.73 µM; in assay [4], 1.11 µM; in assay [5], 16.8 µM; in assay [6], 2.12 µM. Also, the TGI in assay [7] stood at 5.56 µM; in assay [8] it was 20.4 µM; in assay [9], 2.57 µM; in [10] it was 10.3 µM.

`O=C(Nc1ccc2c(c1)OCO2)C(=O)c1c[nH]c2cc(F)ccc12`: the GI50 was 2.12 µM in assay [1]; 0.688 µM in assay [2]; 6.91 µM in assay [3]; 3.23 µM in assay [4]; 17.9 µM in assay [5]; 4.42 µM in assay [6]. For the same compound, the GI50 in assay [7] was 0.677 µM; in [8], 3.52 µM; in [9], 11.7 µM; in assay [10], 4.67 µM. For the same compound, the TGI was 25.4 µM in assay [1]; greater than 100 µM in assay [2]; greater than 100 µM in assay [3]; 36.3 µM in [4]; greater than 100 µM in assay [5]; 44.9 µM in assay [6]. Moreover, the TGI is greater than 100 µM in assay [7], 44.6 µM in assay [8], 69.2 µM in assay [9] and 19 µM in assay [10].

Consider `COc1ccc(CNc2cnc3cc(N)cc(N)c3n2)cc1`, for which the GI50 in assay [1] is 14.2 µM; in [2], 14.3 µM; in assay [3], 37.5 µM; in assay [4], 21.7 µM; in [5], 18.1 µM; in assay [6] it was 16.3 µM. In addition, the GI50 in assay [7] was 28.9 µM; in assay [8], 19.4 µM; in [9], 15.9 µM; in assay [10], 24.5 µM. In addition, the TGI was 29.6 µM in assay [1]; 28 µM in assay [2]; greater than 100 µM in assay [3]; 39.4 µM in assay [4]; 43.6 µM in [5]; 33.7 µM in assay [6]. Moreover, the TGI was 68.6 µM in [7], 49.2 µM in assay [8], 43.2 µM in assay [9] and greater than 100 µM in assay [10].

In the case of `COc1cc2ncn(-c3cc(OCc4ccccc4C(F)(F)F)c(C(C)=O)s3)c2cc1OC`, the GI50 in assay [1] was 24.2 µM; in [2], greater than 25 µM; in [3], greater than 25 µM; in assay [4], greater than 25 µM; in assay [5], greater than 25 µM; in assay [6], greater than 25 µM. For the same compound, the GI50 in [7], in [8], in assay [9] and in assay [10] was greater than 25 µM throughout. Besides, the TGI in [1], in assay [2], in [3], in assay [4], in assay [5] and in assay [6] was greater than 25 µM in each case. For the same compound, the TGI in assay [7], in [8], in [9] and in [10] was greater than 25 µM in each case.
